From patent US11952584B2, “Functional peptides having antimicrobial activity against phytopathogenic microorganisms” (TOYOTA JIDOSHA KABUSHIKI KAISHA, priority 2019, dated 2024)
Where “and” joins values, the source holds several entries; their conditions need not be identical. Equal entries are not always repeated. Where two headings read alike, the source gives them in different places.

Columns and labels:
Assay type in all cases: cell-based
Fusarium oxysporum = system: Fusarium oxysporum
[1] = system: Colletotrichum destructivum; details: 25° C., 1 day or 2 days
[2] = system: Colletotrichum orbiculare; details: 25° C., 1 day or 2 days
Botrytis cinerea = details: 25° C., 1 day or 2 days
Pyricularia oryzae = details: 25° C., 1 day or 2 days

Substance	Plate antimicrobial activity test Fusarium oxysporum (level) (Fusarium oxysporum)	Plate antimicrobial activity test Colletotrichum destructivum (level) ([1]; peptide 1 μM)	Plate antimicrobial activity test Colletotrichum destructivum (level) ([1]; peptide 10 μM)	Plate antimicrobial activity test Colletotrichum destructivum (level) ([1]; peptide 100 μM)	Plate antimicrobial activity test Collectotrichum orbiculare (level) ([2]; peptide 1 μM)	Plate antimicrobial activity test Collectotrichum orbiculare (level) ([2]; peptide 10 μM)	Plate antimicrobial activity test Collectotrichum orbiculare (level) ([2]; peptide 100 μM)	Plate antimicrobial activity test Botrytis cinerea (level) (Botrytis cinerea; peptide 1 μM)	Plate antimicrobial activity test Botrytis cinerea (level) (Botrytis cinerea; peptide 10 μM)	Plate antimicrobial activity test Botrytis cinerea (level) (Botrytis cinerea; peptide 100 μM)	Plate antimicrobial activity test Pyricularia oryzae (level) (Pyricularia oryzae; peptide 1 μM)	Plate antimicrobial activity test Pyricularia oryzae (level) (Pyricularia oryzae; peptide 10 μM)	Plate antimicrobial activity test Pyricularia oryzae (level) (Pyricularia oryzae; peptide 100 μM)
PAFSE (listed as Solanum lycopersicum) [TsORF18-2-5aa-5]	0	0	0	0	0	0	0	0	0	0	0	0	0
PAFSERTR (listed as Solanum lycopersicum) [TsORF18-2-8aa-5]	0	0	0	0	0	0	0	0	0	0	0	0	0
RIWKG (listed as Solanum lycopersicum) [TsORF18-2-5aa-16]	0	0	0	0	0	0	0	0	0	0	0	0	0
RIWKGKTS (listed as Solanum lycopersicum) [TsORF18-2-8aa-16]	1 and 0	0	0	0	0	0	1	0	0	2	0	0	0
RTRKF (listed as Solanum lycopersicum) [TsORF18-2-5aa-10]	0	0	0	0	0	0	0	0	0	1	0	0	0
SERTR (listed as Solanum lycopersicum) [TsORF18-2-5aa-8]	0	0	0	0	0	0	0	0	0	0	0	0	0
SERTRKFW (listed as Solanum lycopersicum) [TsORF18-2-8aa-8]	0	0	0	0	0	0	0	0	0	0	0	0	0
TRKFW (listed as Solanum lycopersicum) [TsORF18-2-5aa-11]	0	0	0	0	0	0	0	0	0	0	0	0	0
WKGKT (listed as Solanum lycopersicum) [TsORF18-2-5aa-18]	0	0	0	0	0	0	0	0	0	0	0	0	0
YGFPA (listed as Solanum lycopersicum) [TsORF18-2-5aa-2]	0	0	0	0	0	0	0	0	0	0	0	0	0
